Results taken from ChEMBL document CHEMBL1134169, “Serotonergic and dopaminergic activities of rigidified (R)-aporphine derivatives” (Bioorg Med Chem Lett, 2001).

Tests used:
D(2) dopamine receptor = D(2) dopamine receptor (Homo sapiens, UniProt P14416); assay: In vitro binding affinity towards cloned human Dopamine receptor D2A using [3H]- Raclopride as radioligand.
[1] = biological target: 5-hydroxytryptamine receptor 7 (Rattus norvegicus, UniProt P32305); assay: In vitro binding affinity towards cloned rat 5-hydroxytryptamine 7 receptor using [3H]5-HT as radioligand
5-hydroxytryptamine receptor 7, sequence (P32305 whole entry): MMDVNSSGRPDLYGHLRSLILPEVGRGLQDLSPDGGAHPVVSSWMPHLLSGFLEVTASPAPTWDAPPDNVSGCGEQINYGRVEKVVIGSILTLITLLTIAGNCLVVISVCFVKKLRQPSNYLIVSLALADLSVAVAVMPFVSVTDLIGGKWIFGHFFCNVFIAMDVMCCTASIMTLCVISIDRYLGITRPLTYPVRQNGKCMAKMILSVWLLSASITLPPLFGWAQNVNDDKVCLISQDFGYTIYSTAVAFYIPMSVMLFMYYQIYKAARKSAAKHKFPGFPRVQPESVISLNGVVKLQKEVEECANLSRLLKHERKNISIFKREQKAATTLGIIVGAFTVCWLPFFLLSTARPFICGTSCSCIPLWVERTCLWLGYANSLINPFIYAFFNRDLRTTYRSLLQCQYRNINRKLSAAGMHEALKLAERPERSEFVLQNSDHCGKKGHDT

[2] = biological target: T1, 5-hydroxytryptamine receptor 1A (Homo sapiens, UniProt P08908); assay: In vitro binding affinity towards cloned human 5-hydroxytryptamine 1A receptor expressed in Chinese hamster ovary (CHO) cells using [3H]8-OH-DPAT as radioligand; format: cell-based
T1 sequence (P08908 whole entry): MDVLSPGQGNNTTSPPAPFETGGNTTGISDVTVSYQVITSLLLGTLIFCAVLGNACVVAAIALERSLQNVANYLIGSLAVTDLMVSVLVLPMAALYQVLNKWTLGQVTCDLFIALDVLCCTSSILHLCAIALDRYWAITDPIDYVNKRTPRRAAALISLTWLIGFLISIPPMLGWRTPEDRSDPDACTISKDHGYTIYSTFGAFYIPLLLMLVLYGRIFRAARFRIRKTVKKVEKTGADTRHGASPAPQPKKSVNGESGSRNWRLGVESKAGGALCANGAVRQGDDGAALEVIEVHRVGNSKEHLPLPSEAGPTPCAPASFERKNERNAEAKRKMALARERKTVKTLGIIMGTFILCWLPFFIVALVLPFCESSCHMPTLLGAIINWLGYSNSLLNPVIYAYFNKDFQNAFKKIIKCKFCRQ

[3] = biological target: T2, 5-hydroxytryptamine receptor 1A (Rattus norvegicus, UniProt P19327); assay: In vitro binding affinity towards 5-hydroxytryptamine 1A receptor using [3H]8-OH-DPAT as radioligand in rat hippocampus membrane.; format: cell membranes
T2 sequence (P19327 whole entry): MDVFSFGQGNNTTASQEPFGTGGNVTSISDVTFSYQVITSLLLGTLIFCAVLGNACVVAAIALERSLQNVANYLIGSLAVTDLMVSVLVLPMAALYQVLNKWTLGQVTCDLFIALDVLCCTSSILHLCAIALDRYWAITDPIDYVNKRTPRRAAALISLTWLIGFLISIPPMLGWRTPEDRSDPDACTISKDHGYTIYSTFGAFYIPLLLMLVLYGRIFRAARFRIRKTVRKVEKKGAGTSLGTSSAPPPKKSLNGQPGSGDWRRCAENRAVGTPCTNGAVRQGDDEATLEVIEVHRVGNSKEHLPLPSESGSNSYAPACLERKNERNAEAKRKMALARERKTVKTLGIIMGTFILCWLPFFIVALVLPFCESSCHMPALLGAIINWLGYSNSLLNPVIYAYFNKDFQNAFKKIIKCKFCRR

D(2) dopamine receptor, sequence (P14416 whole entry): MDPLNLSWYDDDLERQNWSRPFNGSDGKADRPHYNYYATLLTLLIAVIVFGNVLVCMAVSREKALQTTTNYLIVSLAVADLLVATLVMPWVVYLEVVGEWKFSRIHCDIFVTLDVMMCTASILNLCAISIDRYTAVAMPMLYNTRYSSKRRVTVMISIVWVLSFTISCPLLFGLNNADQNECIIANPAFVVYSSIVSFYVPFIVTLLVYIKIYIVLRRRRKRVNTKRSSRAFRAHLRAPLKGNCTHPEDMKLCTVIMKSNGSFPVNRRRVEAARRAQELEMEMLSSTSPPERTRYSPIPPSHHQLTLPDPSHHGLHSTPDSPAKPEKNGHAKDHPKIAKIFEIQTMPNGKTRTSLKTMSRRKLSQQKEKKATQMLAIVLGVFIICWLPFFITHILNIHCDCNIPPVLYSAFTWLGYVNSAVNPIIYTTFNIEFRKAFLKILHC

In the case of CN1CCc2ccc3cnc4cccc5c4c3c2[C@H]1C5, the Ki (D(2) dopamine receptor) is reported as 1330 nM, the Ki [1] is reported as 27.2 nM and the Ki [2] is reported as 62.3 nM.

Compound CN1CCc2ccc3ncc4cccc5c4c3c2[C@H]1C5 has a Ki (D(2) dopamine receptor) of 327 nM, a Ki [1] of 81 nM and a Ki [2] of 33.9 nM.

CN1CCc2ccc3c(=O)oc4cccc5c4c3c2[C@H]1C5 was tested, and the Ki (D(2) dopamine receptor) was 541 nM, the Ki [1] was 283 nM and the Ki [3] was 1150 nM.

Compound CN1CCc2ccc3oc(=O)c4cccc5c4c3c2[C@H]1C5 has a Ki (D(2) dopamine receptor) of 265 nM, a Ki [1] of 1480 nM and a Ki [3] of 2030 nM.

In the case of CN1CCc2ccc3[nH]c(=O)c4cccc5c4c3c2[C@H]1C5, the Ki (D(2) dopamine receptor) is reported as 6110 nM, the Ki [1] is reported as 341 nM and the Ki [2] is reported as 373 nM.

CN1CCc2ccc3c(=O)[nH]c4cccc5c4c3c2[C@H]1C5 was tested, and the Ki (D(2) dopamine receptor) was 54.6 nM, the Ki [1] was 54.5 nM and the Ki [2] was 178 nM.
